Laboratory results taken from PubChem BioAssay AID2060497 (Molecular Pharmacology Branch, DTP, NCI, 2025).

Test system: 317291-083-R-J1-PDC complex spheroids, viability
Assay: Anticancer human tumor 317291-083-R-J1-PDC patient-derived soft tissue sarcoma cell line growth inhibition [GQUAD]
Conditions: for IC50: curve of first compound; for viability, T/C: stronger effect = lower value
Text: DNA G-quadruplex Stabilizer Agents in Combinations in Complex Spheroids
A high-throughput screen of multi-cell type tumor spheroids was designed to identify active combinations of DNA G-quadruplex stabilizer agents and targeted small molecules. Complex spheroids include a stromal component modeled by human endothelial cells (HUVEC) and fibroblasts modeled by human mesenchymal stem cells (MSCs). The concentration ranges selected for each drug and investigational agent were based upon clinically achievable concentrations if the clinical Cmax of the agent was known.
Compounds. The drugs and investigational agents: pidnarulex (CX-5461; NSC782164), APTO-253 (NSC789042), BRACO-19 (NSC847499), peposertib (NSC802822), ceralasertib (NSC780249), elimusertib (NSC800525), camonsertib (NSC841442), AZD-1390 (NSC803789), olaparib (NSC753686), talazoparib (NSC767125), ART-558 (NSC835418), sotorasib (NSC818433), MRTX-1133 (NSC836407), SN-38 (NSC673596), topotecan (NSC609699), etoposide (NSC141540), doxorubicin (NSC123127), gemcitabine (NSC613327), 5-fluorouracil (NSC19893), paclitaxel (NSC125973), vemurafenib (NSC761431), panobinostat (NSC761190), R-306465 (JNJ-16241199; NSC773264), adavosertib (NSC754352), TP-3654 (NSC805149), carboplatin (NSC241240), KSQ-4279 (NSC840948), and staurosporine (NSC755774) were obtained from the National Cancer Institute (NCI) Developmental Therapeutics Program Chemical Repository (34). The FDA-approved anticancer drug set is available from the NCI Developmental Therapeutics Program. […] The stock solutions were prepared in dimethyl sulfoxide (DMSO, Sigma-Aldrich, St. Louis, MO, cat. D2650) at 800-fold the tested concentration and stored at -70 degrees C prior to their use. All drugs and investigational agents were tested over a range starting from a high concentration at or near the clinical Cmax and decreasing in half-log increments. If the clinical Cmax for an agent had not been determined, the highest concentration tested was 10 microM.
2.3 Cell Culture. All cells were maintained in an incubator at 37 degrees C and 5% CO2 with 95% humidity. The PDC lines were cultured according to standard operating procedures established by the NCI PDMR. All PDCs were thawed and cultured in Matrigel-coated flasks prepared with a working solution of 1X Ham's F-12 nutrient mix, without supplementation (Invitrogen, cat. 11765054), 100 U/mL penicillin-streptomycin (Invitrogen, cat. 15140122), and 2.5% Matrigel (Corning Inc., cat. 354248) for the first three passages. The 857933-349-R-J2-PDC line was cultured in 6C/Colon 1B media, which includes advanced DMEM/F-12 (Thermo Fisher Scientific, cat. 12634028), 10 mM HEPES (Thermo Fisher Scientific, cat. 15630080), 1X GlutaMAX supplement (Thermo Fisher Scientific, cat. 35050061), 0.1 mg/mL primocin (InvivoGen, cat. ant-pm-2), 10% defined fetal bovine serum, heat inactivated (HyClone Laboratories Inc., cat. SH30070.03HI), 50% L-WRN conditioned media (ATCC, cat. CRL-3276), 1.25 mM N-Acetyl-L-cysteine (Sigma-Aldrich, cat. A9165), 10 mM nicotinamide (Sigma-Aldrich, cat. N0636), 1X B-27 supplement (Thermo Fisher Scientific, cat. 17504044), 1X N-2 supplement (Thermo Fisher Scientific, cat. 17502048), 10 microM Y-27632 dihydrochloride (Tocris Bioscience, cat. 1254), and 50 ng/mL human EGF recombinant protein (Thermo Fisher Scientific, cat. PHG0311). The 485176-168-R4-J1-PDC line was cultured in Panc media, which includes all 6C/Colon 1B media components plus 100 ng/mL human FGF-10 (Thermo Fisher Scientific, cat. 100-26), 500 nM SB-431542 (Selleckchem, cat. S1067), and gastrin (Tocris, cat. 3006).
[…]

[1] = second compound 0.0316 µM, first compound 0.0316 µM
[2] = second compound 0.0316 µM, first compound 0.1 µM
[3] = second compound 0.0316 µM, first compound 0.316 µM
[4] = second compound 0.0316 µM, first compound 1 µM
[5] = second compound 0.0316 µM, first compound 3.16 µM
[6] = second compound 0.0316 µM, first compound 10 µM
[7] = second compound 0.1 µM, first compound 0.0316 µM
[8] = second compound 0.1 µM, first compound 0.1 µM
[9] = second compound 0.1 µM, first compound 0.316 µM
[10] = second compound 0.1 µM, first compound 1 µM
[11] = second compound 0.1 µM, first compound 3.16 µM
[12] = second compound 0.1 µM, first compound 10 µM
[13] = second compound 0.316 µM, first compound 0.0316 µM
[14] = second compound 0.316 µM, first compound 0.1 µM
[15] = second compound 0.316 µM, first compound 0.316 µM
[16] = second compound 0.316 µM, first compound 1 µM
[17] = second compound 0.316 µM, first compound 3.16 µM
[18] = second compound 0.316 µM, first compound 10 µM
[19] = second compound 1 µM, first compound 0.0316 µM
[20] = second compound 1 µM, first compound 0.1 µM
[21] = second compound 1 µM, first compound 0.316 µM
[22] = second compound 1 µM, first compound 1 µM
[23] = second compound 1 µM, first compound 3.16 µM
[24] = second compound 1 µM, first compound 10 µM
[25] = second compound 3.16 µM, first compound 0.0316 µM
[26] = second compound 3.16 µM, first compound 0.1 µM
[27] = second compound 3.16 µM, first compound 0.316 µM
[28] = second compound 3.16 µM, first compound 1 µM
[29] = second compound 3.16 µM, first compound 3.16 µM
[30] = second compound 3.16 µM, first compound 10 µM
[31] = second compound 10 µM, first compound 0.0316 µM
[32] = second compound 10 µM, first compound 0.1 µM
[33] = second compound 10 µM, first compound 0.316 µM
[34] = second compound 10 µM, first compound 1 µM
[35] = second compound 10 µM, first compound 3.16 µM
[36] = second compound 10 µM, first compound 10 µM
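Also: spheroids exposed to compounds for one week before readout.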
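For viability, T/C in this document: percent viability relative to DMSO vehicle wells taken as 100%.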

O=c1[nH]cc(F)c(=O)[nH]1 + Cc1[nH]c2ccc(F)cc2c1-c1nc2c3cccnc3c3ncccc3c2[nH]1
IC50 (second compound 0.0316 µM): 5.34 µM | IC50 (second compound 0.1 µM): 1.68 µM | IC50 (second compound 0.316 µM): 1.77 µM | IC50 (second compound 1 µM): 1.6 µM | IC50 (second compound 3.16 µM): 2.71 µM | IC50 (second compound 10 µM): 0.823 µM | viability, T/C [1]: 118% | viability, T/C [2]: 117% | viability, T/C [3]: 116% | viability, T/C [4]: 69.5% | viability, T/C [5]: 73.3% | viability, T/C [6]: 31.8% | viability, T/C [7]: 110% | viability, T/C [8]: 106% | viability, T/C [9]: 96.7% | viability, T/C [10]: 62.2% | viability, T/C [11]: 34.7% | viability, T/C [12]: 30.6% | viability, T/C [13]: 108% | viability, T/C [14]: 104% | viability, T/C [15]: 89.1% | viability, T/C [16]: 63.6% | viability, T/C [17]: 35.4% | viability, T/C [18]: 31.8% | viability, T/C [19]: 93.9% | viability, T/C [20]: 102% | viability, T/C [21]: 102% | viability, T/C [22]: 60.9% | viability, T/C [23]: 36.5% | viability, T/C [24]: 31.9% | viability, T/C [25]: 99.3% | viability, T/C [26]: 86.6% | viability, T/C [27]: 79.2% | viability, T/C [28]: 45.2% | viability, T/C [29]: 64.3% | viability, T/C [30]: 30.2% | viability, T/C [31]: 73.6% | viability, T/C [32]: 75.9% | viability, T/C [33]: 81.5% | viability, T/C [34]: 44.5% | viability, T/C [35]: 33% | viability, T/C [36]: 27.4%

CC(C)n1c(=O)n(C)c2cnc3cc(F)c(-c4ccc(OCCCN5CCCCC5)nc4)cc3c21 + Cc1[nH]c2ccc(F)cc2c1-c1nc2c3cccnc3c3ncccc3c2[nH]1
IC50 (second compound 0.0316 µM): > 10 µM | IC50 (second compound 0.1 µM): 8.61 µM | IC50 (second compound 0.316 µM): 8.62 µM | IC50 (second compound 1 µM): > 10 µM | IC50 (second compound 3.16 µM): 7.88 µM | IC50 (second compound 10 µM): > 10 µM | viability, T/C [1]: 104% | viability, T/C [2]: 111% | viability, T/C [3]: 92.5% | viability, T/C [4]: 97.1% | viability, T/C [5]: 86.2% | viability, T/C [6]: 50.5% | viability, T/C [7]: 104% | viability, T/C [8]: 101% | viability, T/C [9]: 96.3% | viability, T/C [10]: 96.7% | viability, T/C [11]: 92.9% | viability, T/C [12]: 43.3% | viability, T/C [13]: 88.6% | viability, T/C [14]: 103% | viability, T/C [15]: 105% | viability, T/C [16]: 85% | viability, T/C [17]: 106% | viability, T/C [18]: 42.9% | viability, T/C [19]: 114% | viability, T/C [20]: 108% | viability, T/C [21]: 93.7% | viability, T/C [22]: 96.3% | viability, T/C [23]: 92.7% | viability, T/C [24]: 53.5% | viability, T/C [25]: 80.7% | viability, T/C [26]: 103% | viability, T/C [27]: 97.6% | viability, T/C [28]: 72.4% | viability, T/C [29]: 93.8% | viability, T/C [30]: 39.7% | viability, T/C [31]: 99.2% | viability, T/C [32]: 107% | viability, T/C [33]: 83.5% | viability, T/C [34]: 92.5% | viability, T/C [35]: 85.2% | viability, T/C [36]: 50%
